The NIST ThermoML archive (doi:10.1021/je049776w)

Assay: xn = mol fraction of the nth substance listed
Conditions: 101.3 kPa, Liquid

Cc1ccc(C)cc1 [1,4-dimethylbenzene] + CCCCCCCC
Conditions | mass density [kg/m3] | viscosity [mPa·s]
298.15 K, x1 = 0.1068 | 712.9 | 0.5185
298.15 K, x1 = 0.2121 | 726.39 | 0.5172
298.15 K, x1 = 0.3156 | 740.39 | 0.5216
298.15 K, x1 = 0.4178 | 755.01 | 0.5273
298.15 K, x1 = 0.5184 | 770.21 | 0.5297
298.15 K, x1 = 0.6174 | 786.05 | 0.5393
298.15 K, x1 = 0.7152 | 802.61 | 0.5515
298.15 K, x1 = 0.8113 | 819.83 | 0.5678
298.15 K, x1 = 0.9065 | 837.91 | 0.5905
298.15 K, x1 = 1 | 856.7 | 0.6162
303.15 K, x1 = 0.1068 | 708.71 | 0.4829
303.15 K, x1 = 0.2121 | 722.17 | 0.4825
303.15 K, x1 = 0.3156 | 736.15 | 0.4833
303.15 K, x1 = 0.4178 | 750.77 | 0.4919
303.15 K, x1 = 0.5184 | 765.93 | 0.493
303.15 K, x1 = 0.6174 | 781.76 | 0.502
303.15 K, x1 = 0.7152 | 798.3 | 0.5139
303.15 K, x1 = 0.8113 | 815.51 | 0.5299
303.15 K, x1 = 0.9065 | 833.52 | 0.5489
303.15 K, x1 = 1 | 852.35 | 0.5715
313.15 K, x1 = 0.1068 | 700.44 | 0.4298
313.15 K, x1 = 0.2121 | 713.85 | 0.4298
313.15 K, x1 = 0.3156 | 727.78 | 0.4331
313.15 K, x1 = 0.4178 | 742.31 | 0.4373
313.15 K, x1 = 0.5184 | 757.45 | 0.4418
313.15 K, x1 = 0.6174 | 773.23 | 0.4483
313.15 K, x1 = 0.7152 | 789.72 | 0.4586
313.15 K, x1 = 0.8113 | 806.89 | 0.4722
313.15 K, x1 = 0.9065 | 824.89 | 0.4895
313.15 K, x1 = 1 | 843.64 | 0.508
323.15 K, x1 = 0.1068 | 692.26 | 0.3877
323.15 K, x1 = 0.2121 | 705.6 | 0.3903
323.15 K, x1 = 0.3156 | 719.47 | 0.3901
323.15 K, x1 = 0.4178 | 733.93 | 0.3952
323.15 K, x1 = 0.5184 | 749.01 | 0.3997
323.15 K, x1 = 0.6174 | 764.73 | 0.4057
323.15 K, x1 = 0.7152 | 781.17 | 0.4143
323.15 K, x1 = 0.8113 | 798.31 | 0.4269
323.15 K, x1 = 0.9065 | 816.2 | 0.4409
323.15 K, x1 = 1 | 834.9 | 0.4599
333.15 K, x1 = 0.1068 | 683.83 | 0.3528
333.15 K, x1 = 0.2121 | 697.15 | 0.3552
333.15 K, x1 = 0.3156 | 710.96 | 0.3571
333.15 K, x1 = 0.4178 | 725.38 | 0.3617
333.15 K, x1 = 0.5184 | 740.41 | 0.3671
333.15 K, x1 = 0.6174 | 756.08 | 0.3753
333.15 K, x1 = 0.7152 | 772.47 | 0.3858
333.15 K, x1 = 0.8113 | 789.52 | 0.3961
333.15 K, x1 = 0.9065 | 807.43 | 0.4138
333.15 K, x1 = 1 | 826.09 | 0.4298
343.15 K, x1 = 0.1068 | 675.29 | 0.3167
343.15 K, x1 = 0.2121 | 688.57 | 0.3164
343.15 K, x1 = 0.3156 | 702.32 | 0.3185
343.15 K, x1 = 0.4178 | 716.69 | 0.3223
343.15 K, x1 = 0.5184 | 731.68 | 0.3271
343.15 K, x1 = 0.6174 | 747.3 | 0.3329
343.15 K, x1 = 0.7152 | 763.64 | 0.341
343.15 K, x1 = 0.8113 | 780.65 | 0.3481
343.15 K, x1 = 0.9065 | 798.53 | 0.3588
343.15 K, x1 = 1 | 817.17 | 0.3783
353.15 K, x1 = 0.1068 | 666.51 | 0.2856
353.15 K, x1 = 0.2121 | 679.75 | 0.2877
353.15 K, x1 = 0.3156 | 693.48 | 0.2897
353.15 K, x1 = 0.4178 | 707.82 | 0.2939
353.15 K, x1 = 0.5184 | 722.78 | 0.2984
353.15 K, x1 = 0.6174 | 738.37 | 0.3016
353.15 K, x1 = 0.7152 | 754.7 | 0.3113
353.15 K, x1 = 0.8113 | 771.7 | 0.3174
353.15 K, x1 = 0.9065 | 789.57 | 0.3264
353.15 K, x1 = 1 | 808.22 | 0.3382
